Data taken from patent US20240390414A1 (priority 2023, published 2024).

Tests used:
[1] = Excerpt: With or without one or more of the following adjuvant cofactors given one to three times daily
I did Viome testing and must avoid some foods and take pre and pro biotics that they recommend.

[2] = system: human microglia and astrocytes; details: cited from earlier work
[3] = system: differentiated human derived cell lines; details: glial cells activated by LPS/IFNγ or IFNγ and treated with STS; cited from earlier work
[4] = 2018 study, cited from earlier work
[5] = corn and wheat samples; cited from earlier work
[6] = cited from earlier work

Row | SMILES | changes observed (patient questionnaire comment) ([1]; in combination with sporanox) | stimming reduced ([1]; on day 1, one patient's comment) | reduction in finger flicking and finger writing stimming ([1]; one patient's comment) [%] | H2S and GSH expression [2] | neuroprotection [3] | toxicity of deoxynivalenol (DON) ([4]; Journal of Environmental Science and Health) | levels of oxidative stress and inflammation caused by DON exposure [4] | levels of aflatoxins, ochratoxin A, and zearalenone [5] | treatment for calciphylaxis ([6]; Ackermann et al. 2007) | treatment for vascular calcification ([6]; O'Neill 2008) | prevention of platinum-induced ototoxicity and nephrotoxicity ([6]; Skinner 1995)
1 | O=S([O-])([O-])=S.[Na+].[Na+] [STS, Sodium thiosulfate] | more aware and more present | 80-90% | 30 to 40 | increases | significant enhancement of neuroprotection | reduced the toxicity | able to reduce the levels of oxidative stress and inflammation | significantly reduce the levels |  |  | 
2 | O.O.O.O.O.O=S([O-])([O-])=S.[Na+].[Na+] [sodium thiosulfate pentahydrate] |  |  |  |  |  |  |  |  | effective treatment for calciphylaxis | effective treatment for vascular calcification | effective treatment to prevent platinum-induced ototoxicity and nephrotoxicity
